The record followed here is patent publication US8609610B2, “Inhibitors of the trypsin-like site of the proteasome and methods of use thereof” (Trustees of Dartmouth College, priority 2011, dated 2013).

One assay has as its target T1, cathepsin D (Homo sapiens, UniProt P07339).
T1 construct: endogenous in cells
Nature of the assay: Cathepsin D activity assay (SENSOLYTE 520). Type of assay: cell-based. The procedure:
(§1) Cathepsin B, H, L, S activity was measured with pan-cathepsin substrate Z-FR-amc (Kirschke & Wiederanders (1994) Methods Enzymol. 244:500-11) in extracts of cytosol-less cells at pH 6.0 (Screen, et al. (2010) supra). Cathepsin D activity was measured in cytosol-less extracts using SENSOLYTE 520 Cathepsin D Fluorometric Assay Kit (AnaSpec). Combined cathepsin D and E activity was measured using the same kit, in which cathepsin D substrate provided with the kit was replaced with 7-Methoxycoumarin-[…](Dnp)-X′-NH2 (SEQ ID NO:10; where “X′” stand for D-Arg) internally quenched fluorogenic substrate of cathepsin D and E. In this case, pH 3.0 assay buffer used for cell extraction. All activity observed using both procedures was inhibited by more than 98% by specific inhibitor of aspartic proteases pepstatin A.

The test system of assay [1] is proteasome catalytic subunits in NCI-H929 cells. Description: Isolation and identification of polypeptides modified by az-NC-002. Type of assay: cell-based. Conditions: BioP ligation, streptavidin isolation, mass-spectrometry. The procedure:
Cells were treated with the activity-based site probe overnight and lysed with 50 mM Tris-HCl, 10% glycerol, 5 mM MgCl2, 0.5 mM EDTA, 0.5% CHAPS, 1 mM ATP. […] After on-beads trypsin digestion, samples were analyzed by LC-MS/MS (Florea, et al. (2010) Chem. Biol. 17:795-801). IRDYE 800 CW-conjugated streptavidin was purchased from Rockland, hsc71 antibodies from Abcam (Cat #19136), and β2 antibodies from Abgent (Cat #AP2914b).
To further confirm that NC-002, NC-012 and NC-022 were specific for the trypsin-like sites and that the biological activity was not due to off-target effects, az-NC-002 was synthesized as an NC-002-derived, activity-based probe. […] One major az-NC-002-specific streptavidin-reactive band was detected. […] A weaker band of slightly lower mobility, matching the mobility of β2i band, was also detected. […] A number of endogenously biotinylated proteins in the 70-100 kDa region were also detected and can serve as a loading control.
To further confirm that the probe covalently modified β2 and β2i subunits, proteasome was denatured after BioP modification, biotinylated polypeptides were isolated on streptavidin beads, and bound polypeptides were identified by mass-spectrometry after on-beads trypsin digestion. […] No peptides derived from other catalytic subunits were detected.

The subject of a further assay is Cathepsin B, H, L, S. Description: Cathepsin activity with pan-cathepsin substrate Z-FR-amc. Conditions: NCI-H929 cells, 6 hour treatment. The class given is cell-based. The procedure: as §1
The target in assay [2] is T2, trypsin-like site of 26S proteasomes (Oryctolagus cuniculus, UniProt G1SWK8).
T2 construct: IC50 for sites in 26S proteasomes: Tr-L; other: purified 26S proteasomes; other: 26S proteasomes from rabbit muscles
T2 sequence (G1SWK8 1-271): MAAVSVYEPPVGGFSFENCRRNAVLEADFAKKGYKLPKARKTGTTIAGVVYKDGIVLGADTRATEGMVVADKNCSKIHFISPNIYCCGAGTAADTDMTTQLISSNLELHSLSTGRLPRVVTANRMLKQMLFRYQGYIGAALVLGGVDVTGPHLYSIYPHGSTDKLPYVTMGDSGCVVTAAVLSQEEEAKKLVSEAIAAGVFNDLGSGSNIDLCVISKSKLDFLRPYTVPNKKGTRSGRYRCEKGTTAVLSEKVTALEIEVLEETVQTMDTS
Description: Inhibition of purified 26S proteasomes, substrate Ac-RLR-amc. The class given is biochemical, rabbit. Conditions: purified 26S proteasomes; >>30 no inhibition at 30 μM, >30 inhibition between 10 and 50% at 30 μM; read-out: IC50 for sites in 26S proteasomes: Tr-L.

For the next assay, the target named is T3, β2 proteasome subunit (Homo sapiens, UniProt P49720+Q99436).
T3 construct: Whole cell lysates of HEK-293T or EL-4 cells were made by sonication; endogenous in cells; host or cells: HEK-293T
Description: Competition assay in HEK-293T cell lysate with MV151. The class given is biochemical.

The target in assay [3] is T4, chymotrypsin-like site of 26S proteasomes (Oryctolagus cuniculus, UniProt G1T4Q9).
T4 sequence (G1T4Q9 1-263): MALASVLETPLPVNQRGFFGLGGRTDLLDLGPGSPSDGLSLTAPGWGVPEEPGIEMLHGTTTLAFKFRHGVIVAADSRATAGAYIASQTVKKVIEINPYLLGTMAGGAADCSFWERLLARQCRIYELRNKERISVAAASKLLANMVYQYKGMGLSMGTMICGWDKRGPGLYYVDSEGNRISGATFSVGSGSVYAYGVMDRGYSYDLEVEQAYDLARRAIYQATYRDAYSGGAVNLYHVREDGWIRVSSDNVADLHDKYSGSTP
Description: Inhibition of purified 26S proteasomes, substrate Suc-LLVY-amc. The following applies: >>30 no inhibition at 30 μM, >30 inhibition between 10 and 50% at 30 μM, read-out: IC50 for sites in 26S proteasomes: Chym-L. The class given is biochemical, rabbit. The procedure:
26S proteasomes were purified from rabbit muscle using known methods (Screen, et al. (2010) supra). […] NOVEX Bis-Tris gels (12%, Invitrogen) with MOPS running buffer were used for electrophoretic separation of catalytic subunits modified by active-site probes. Inhibition of active sites inside cells was assayed using luminescent PROTEASOMEGLO assay (Promega; Moravec, et al. (2009) Anal. Biochem. 387:294-302) according to known methods (Britton, et al. (2009) supra).

Assay [4] concerns trypsin-like sites (β2) of proteasome in MM cells. Description: PROTEASOMEGLO assay of proteasome inhibition in MM cells. Type of assay: cell-based.
Assay [5] deals with trypsin-like site of 26S proteasomes. Description: Inhibition of purified 26S proteasomes, substrate Ac-RLR-amc. Type of assay: biochemical, rabbit.
For the next assay, the target named is T5, β5 proteasome subunit (Homo sapiens, UniProt P20618+P28074).
T5 construct: Whole cell lysates of HEK-293T or EL-4 cells were made by sonication; endogenous in cells; host or cells: HEK-293T
Nature of the assay: Competition assay in HEK-293T cell lysate with MV151. The class given is biochemical. The following applies: HEK-293T lysate, 5 μM. The procedure: Whole cell lysates of HEK-293T or EL-4 cells were made by sonication in 3 volumes of lysis buffer containing 50 mM Tris pH 7.5, 1 mM DTT, 5 mM MgCl2, 250 mM sucrose, 2 mM ATP, 0.025% digitonin. Protein concentration was determined by the Bradford assay. Cell lysates (13.5 μg total protein for HEK lysates and 9 μg total protein for EL-4 lysates) were exposed to the inhibitors for 1 hour at 37° C. prior to incubation with MV151 (0.5 μM) or BODIPY-TMR-epoxomicin (0.5 μM) for an additional 1 hour at 37° C. Reaction mixtures were boiled with Laemmli's buffer containing (3-mercaptoethanol for 5 minutes before being resolved by 12.5% SDS-PAGE. In-gel detection of residual proteasome activity was performed in the wet gel slabs directly on the TYPHOON Variable Mode Imager (Amersham Biosciences) using the Cy3/Tamra settings (λex 532 nm, λem 560 nm) to detect MV151, BODIPY-TMR-epoxomicin and Cy2/Fam settings (λex 488 nm, λem 520 nm) to detect compounds 39 and 59.
The inhibition potential of the inhibitors for each of the catalytically active subunits was assessed in competition assays employing extracts of human embryonic kidney cells (HEK-293T) and mouse lymphoma cells (EL-4) in combination with the fluorescent broad spectrum proteasome probe MV151 (Verdoes, et al. (2006) Chem. Biol. 13:1217-1226). Competitive inhibition of a proteasome active site is reflected by the disappearance of the corresponding band on a gel.

Assay [6] has as its target β2 (trypsin-like site) of proteasome in HEK-293T cells (Homo sapiens, UniProt P49720+Q99436). Nature of the assay: Competition assay in living HEK-293T cells with activity-based probe. Type of assay: cell-based. As for the experimental part: Proteasome inhibition in MM cells was measured with luminogenic substrates using PROTEASOMEGLO assay (Promega). […] An aliquot of culture was pelleted and medium was removed and replaced with PBS. The resulting cell suspension was mixed with luminogenic substrates in the manufacturer-provided lysis/assay buffer. After 3 minutes mixing on an orbital shaker, the plate was incubated in the dark for additional 17 minutes, followed by the measurements of the luminescence, performed in triplicate for each substrate/data point. Data were analyzed as for purified proteasomes. […] Cells (1×10^6 per well of a 6-well plate) were incubated with the inhibitors for 4 hours at 37° C. and this was followed by a 2 hour incubation with 5 μM BODIPY-TMR-epoxomicin. Subsequently, the medium was removed and the cells were washed with PBS and harvested. […] The supernatant was collected and the protein concentration was determined by the Bradford assay, and used to normalize gel loading. The samples were analysed by SDS-PAGE and fluorescent densitometry as described for competition experiment in cell lysates. IC50 values were calculated from three independent experiments using […] PRISM software.
Human embryonic kidney cells (some 1×10^6) were cultured in 6-well plates in DMEM containing 10% fetal calf serum, 10 units/mL penicillin and 10 μg/mL streptomycin in a 7% CO2 humidified incubator at 37° C. overnight. Part of the medium was taken and to this was added the appropriate inhibitor in DMSO (1 μL of a 1,000× stock solution), after which the medium was added to the cells. The cells were incubated with the inhibitors for 4 hours at 37° C. and this was followed by addition of MV151 (1 μL of a 5 mM stock solution in DMSO) and incubation for 2 hours at 37° C. Next, the medium was removed and the cells were washed with PBS and harvested. […] The supernatant was collected and the protein concentration was determined by the Bradford assay. All samples were normalized to the same protein concentration with lysis buffer.

T1 sequence (P07339 65-412): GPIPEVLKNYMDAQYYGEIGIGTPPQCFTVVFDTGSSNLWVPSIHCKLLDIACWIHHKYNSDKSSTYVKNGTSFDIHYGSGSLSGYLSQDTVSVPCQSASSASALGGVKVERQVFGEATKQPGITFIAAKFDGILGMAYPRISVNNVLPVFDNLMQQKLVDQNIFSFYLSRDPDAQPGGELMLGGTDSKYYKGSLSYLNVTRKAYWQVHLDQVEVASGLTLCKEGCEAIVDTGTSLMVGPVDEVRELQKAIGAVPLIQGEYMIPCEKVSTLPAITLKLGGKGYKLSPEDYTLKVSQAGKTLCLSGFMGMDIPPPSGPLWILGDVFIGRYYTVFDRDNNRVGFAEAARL

Turning to `CC(C)C[C@H](NC(=O)CN=[N+]=[N-])C(=O)N[C@@H](CC(C)C)C(=O)N[C@@H](CCCNC(=N)N)C(=O)[C@@]1(C)CO1` [az-NC-002, Az-Gly-Leu-Leu-Arg-ek], the “inhibition of cathepsin D” value at cathepsin D is listed as “no significant inhibition”. Besides, the “subunits modified by the probe” value in [1] is listed as “trypsin-like site-specific activity-based probe”.
For the molecule `CC(C)C[C@H](NC(=O)[C@H](Cc1ccc(CN)cc1)NC(=O)[C@H](Cc1ccccc1)N=[N+]=[N-])C(=O)N[C@H](/C=C/S(C)(=O)=O)Cc1ccc(CN)cc1` [Compound 52, N3-Phe-Phe (4-CH2NH2)-Leu-Phe (4-CH2NH2)-VS], in the assay with Cathepsin B, H, L, S, the “inhibition of cathepsins (Z-FR-amc)” value is recorded as “slightly more potent inhibitor of cathepsins”. For the same molecule, the 50% inhibitory concentration (IC50) in assay [2] stood at 0.0066 µM; in [3] it was 3.9 µM. Also, the “potency in extracts of human cells” value on β2 proteasome subunit (HEK293 extracts) is “most potent inhibitor in extracts”. Besides, the “difference in IC50 for trypsin-like activity between NCI-H929 and RPMI-8226” value in assay [4] came to 2.5 fold.
With “BODIPY-triazole-Phe-Leu-Leu-Phe (4-CH2NH2)-VS [Compound 39]”, in [5], the “inhibition of trypsin- and chymotrypsin-like activities” value is “equipotently inhibited trypsin- and chymotrypsin-like activities”; the “specificity after attachment of BODIPY-FL dye” value is reported as “complete loss of specificity”. The “inhibition of β5 in cell lysate” value on β5 proteasome subunit was “all β2 and β5 proteasomal activity was inhibited”. Moreover, the “inhibition of β2 in cell lysate” value at β2 proteasome subunit (HEK-293T lysate, 5 μM) was “all β2 and β5 proteasomal activity was inhibited”. The “inhibition of β2 and β5 in living cells” value in assay [6] (5 μM) was “seemed not to be competed away at all”. Further, in [6] (50 μM), the “inhibition of proteasome activity in living cells” value is “not all proteasome activity was silenced”.

The IC50 is the concentration that inhibits the measured activity by half.
